Entries after “also recorded” stand apart in the source; their conditions may differ.
Tested on: NF-κB
Assay: NF-κB electrophoretic mobility shift assay (EMSA) on cultured, treated milk cells from chronic mastitis-affected cows
Format: cell-based, Holstein-Friesian cows
Conditions: protein extraction 3 hours after treatment, versus untreated cells
Procedure: Isolated milk cells were centrifuged for 10 minutes at 300 g and the pellet was resuspended in 600 μl lysis buffer (0.1% nonidet P-40; 10 mM Tris HCl, pH 7.4; 10 mM NaCl; 3 mM MgCl2; 1 mM EDTA; 2 mM orthovanadate; 1 mM diisopropyl fluorophosphates (DFP); 10 μg/ml leupeptin; 10 μg/ml aprotinin). The cells were vortexed 15 seconds, kept on ice for 5 minutes, and centrifuged for 10 minutes at 300 g. The resulting pellet was resuspended in a KCl buffer (10 mM Hepes, pH 7.4; 400 mM KCl; 10% Glycerol; 2 mM EDTA; 1 mM Ethylene glycol-bis[β-aminoethyl ether]-N, N,N′N′-tetraacetic acid (EGTA); 1% nonidet P-40, 1 mM dithiothreitol (DTT); 2 mM orthovanadate; 10 μg/ml leupeptin; 10 μg/ml aprotinin; 1 mM DFP) and kept at 4° C. for 10 minutes before centrifugation for 15 minutes at 12,000 g. The supernatant was diluted three times and stored at −80° C. until use.
Binding reactions were performed for 30 minutes at room temperature with 5 μg of total protein extracts in 20 mM Hepes (pH 7.9), 10 mM KCl, 0.2 mM EDTA, 20% (v/v) glycerol, 1% (w/v) acetylated bovine serum albumin, 3 μg of poly(dI-dC) (Amersham Pharmacia Biotech, Aylesbury, U.K.), 1 mM DTT (dithiothreitol), 1 mM phenylmethylsulfonyl fluoride, and 100,000 cpm of ^32P-labeled double-stranded oligonucleotide probes. Probes were prepared by annealing the appropriate single-stranded oligonucleotides (Eurogentech, Liège, Belgium) at 65° C. for 10 minutes in 10 mM Tris, 1 mM EDTA, and 10 mM NaCl, followed by slow cooling to room temperature. The probes were labeled by end-filling with the Klenow fragment of E. coli DNA polymerase I (Roche, Mannheim, Germany), with [^32P]dATP and [^32P]dCTP (Dupont-New England Nuclear, Les Ulis, Fance). Labeled probes were purified by spin chromatography on Sephadex G-25 columns (Roche). […] The amount of specific complexes was determined by photodensitometry of the autoradiography. […] The NF-κB activity was assessed by photodensitometry of the specific bands. […]

Row | Compound | NF-κB activity (DNA-binding activity by EMSA, photodensitometry) (15d-PGJ2 at 40 μM, 50 μM, 60 μM and 80 μM) | NF-κB activity (DNA-binding activity by EMSA, photodensitometry) (gliotoxine at 1 μl/ml) | NF-κB activity (DNA-binding activity by EMSA, photodensitometry) (gliotoxine at 1 μl/ml, listed as gliotoxine)
1 | CCCCCC=CC=C1C(=O)C=C[C@@H]1CC=CCCCC(=O)O [15d-PGJ2, 15-deoxy-Δ.12,14-prostaglandin J2] | reduced NF-κB activity; also recorded: inhibit NF-κB activation | – | –
2 | CN1C(=O)[C@]23CC4=CC=C[C@H](O)[C@H]4N2C(=O)[C@@]1(CO)SS3 [glyotoxine, gliotoxin] | – | reduced NF-κB activity | inhibit NF-κB activation

Source: patent US20060240011A1, “Use of nf-kappa b inhibitors for the treatment of mastitis” (priority 2002, published 2006)
